Assay results: patent US9676789B2, “Aminated derivative of homoharringtonine, preparation method therefor, and application thereof” (HANGZHOU BENSHENG PHARMACEUTICAL CO., LTD., priority 2011, dated 2017)
≈ marks a conversion by molar mass, not a printed value.

Assays:
[1] = system: H9 (acute lymphoblastic leukemia, ALL); assay: MTT leukemia cell growth inhibition, 72 h; format: cell-based, human; conditions: Homo sapiens, H9, 72 h
Procedure, shortened: (§1)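 Cells were seeded at 6000 per well in RPMI-1640 with 10% FBS and exposed to homoharringtonine derivatives at various concentrations for 72 h at 37°C, 5% CO2. Viable cells were measured by MTT. Untreated controls were set as 100% viability.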

[2] = system: Jurkat (acute lymphoblastic leukemia, ALL); assay: MTT leukemia cell growth inhibition, 72 h; format: cell-based, human; conditions: Homo sapiens
Procedure, shortened: as §1

[3] = system: K562/adr (drug-resistant, chronic myeloid leukemia, CML); assay: MTT leukemia cell growth inhibition, 72 h; format: cell-based, human; conditions: Homo sapiens, K562/Adr
Procedure, shortened: as §1

[4] = system: Kasumi-1 (acute myeloid leukemia M2 type, AML-M2); assay: MTT leukemia cell growth inhibition, 72 h; format: cell-based, human; conditions: Homo sapiens, Kasumi-1, 72 h
Procedure, shortened: as §1

[5] = system: NB4 (acute promyelocytic leukemia, AML); assay: MTT leukemia cell growth inhibition, 72 h; format: cell-based, human; conditions: Homo sapiens, NB4, 72 h
Procedure, shortened: as §1

[6] = system: RPMI8226 (multiple myeloma); assay: MTT multiple myeloma cell growth inhibition, 72 h; format: cell-based, human
Procedure, shortened: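 RPMI8226 cells at 6000 per well in 1640 medium with 10% fetal bovine serum, exposed to homoharringtonine derivatives at various concentrations. Incubation 72 h at 37° C, 5% CO2; viable cells read by MTT.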

[7] = system: A549 (human lung cancer); assay: MTT solid tumor cell growth inhibition, 72 h; format: cell-based; conditions: Homo sapiens, A549, 72 h
Procedure, shortened: (§2)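 Cells seeded at 4000 per well in DMEM high glucose with 10% FBS were grown 24 h at 37° C, 5% CO2, then exposed to homoharringtonine derivatives at various concentrations for 72 h. Viable cells were measured by MTT, and viability (%) was expressed relative to untreated controls set at 100%.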

[8] = system: Becap37 (human breast cancer cell); assay: MTT solid tumor cell growth inhibition, 72 h; format: cell-based; conditions: Homo sapiens, Becap37, 72 h
Procedure, shortened: as §2

[9] = system: Hela (human cervical cancer cell); assay: MTT solid tumor cell growth inhibition, 72 h; format: cell-based; conditions: Homo sapiens, HeLa
Procedure, shortened: as §2

[10] = system: Hep-2 (human hepatocellular carcinoma); assay: MTT solid tumor cell growth inhibition, 72 h; format: cell-based; conditions: Homo sapiens, HEp-2, Hep2, 72 h
Procedure, shortened: as §2

[11] = system: Huh7 (human liver cancer cell); assay: MTT solid tumor cell growth inhibition, 72 h; format: cell-based; conditions: Homo sapiens, Huh-7, Huh7, 72 h
Procedure, shortened: as §2

[12] = system: MGC 803 (human gastric cancer cell); assay: MTT solid tumor cell growth inhibition, 72 h; format: cell-based; conditions: Homo sapiens, MGC 803, 72 h
Procedure, shortened: as §2

[13] = system: RKO (human colon adenocarcinoma cell); assay: MTT solid tumor cell growth inhibition, 72 h; format: cell-based; conditions: Homo sapiens
Procedure, shortened: as §2

[14] = system: CNE (nasopharyngeal carcinoma cell); assay: MTT solid tumor cell growth inhibition, 72 h; format: cell-based, human; conditions: Homo sapiens
Procedure, shortened: as §2

[15] = system: CaES-17 (esophageal cancer cell); assay: MTT solid tumor cell growth inhibition, 72 h; format: cell-based, human; conditions: Homo sapiens, CaEs17, CaES-17, 72 h
Procedure, shortened: as §2

[16] = system: MG63 (osteosarcoma); assay: MTT solid tumor cell growth inhibition, 72 h; format: cell-based, human; conditions: Homo sapiens, MG 63, 72 h
Procedure, shortened: as §2

[17] = system: PANC-1 (pancreatic cancer); assay: MTT solid tumor cell growth inhibition, 72 h; format: cell-based, human; conditions: Homo sapiens, PANC-1, 72 h
Procedure, shortened: as §2

[18] = system: PC-3 (prostate cancer); assay: MTT solid tumor cell growth inhibition, 72 h; format: cell-based, human; conditions: Homo sapiens, PC-3, 72 h
Procedure, shortened: as §2

[19] = system: SK-OV-3 (ovarian cancer cell); assay: MTT solid tumor cell growth inhibition, 72 h; format: cell-based, human; conditions: Homo sapiens, SK-OV-3, 72 h
Procedure, shortened: as §2

[20] = system: U87 MG (malignant glioma cell); assay: MTT solid tumor cell growth inhibition, 72 h; format: cell-based, human; conditions: Homo sapiens, U-87 MG
Procedure, shortened: as §2

[21] = system: K562/adr, NB4, Kasumi-1 and H9; assay: Anti-leukemia activity, summary over cell lines; format: cell-based, human; conditions: result in words, summary of Table 1
From the text: Leukemia cell lines: K562/adr (drug-resistant, chronic myeloid leukemia, CML), NB4 (acute promyelocytic leukemia, AML), Kasumi-1 (acute myeloid leukemia M2 type, AML-M2), Jurkat (acute lymphoblastic leukemia, ALL), all of which are donated by Cancer Research Institute of Zhejiang University, China; and H9 (acute lymphoblastic leukemia, ALL), which is purchased from China Center for Type Culture Collection.
Obtaining 6000 well-growing leukemia cells and inoculating them into wells of a 96-well cell culture plate. The culture medium is the 1640 cell culture medium containing 10% fetal bovine serum. After adding the homoharringtonine derivatives of different concentrations and mixing uniformly, placing the plate in a carbon dioxide cell incubator (5% CO2) at 37° C. and incubating for 72 hours. Then the viable cell concentration is determined by the MTT method. In this experiment, the cell viability in control group (not treated with any compound) is set as 100%.

[22] = system: A549, PANC-1, Becap37, MG63, Huh7, RKO, Hela, CaES-17, CNE, Hep-2, PC-3 and SK-OV-3; assay: Anti-human solid tumor effect, summary over cell lines; format: cell-based; conditions: result in words, summary of Table 2
Method: Human solid tumor cell lines: Hep-2 ([…]), A549 (human lung cancer), CaES-17 (esophageal cancer cell), PC-3 (prostate cancer), CNE (nasopharyngeal carcinoma cell), and SK-OV-3 (ovarian cancer cell), all of which are purchased from China Center For Type Culture Collection; RKO (human colon adenocarcinoma cell), MGC 803 (human gastric cancer cell), MG63 (osteosarcoma) and U87 MG (malignant glioma cell), all of which are purchased from Fuxiang Bio-tech Co. Ltd., Shanghai, China; PANC-1 (pancreatic cancer), Huh7 (human liver cancer cell), Becap37 (human breast cancer cell), and Hela (human cervical cancer cell), all of which are donated by Cancer Research Institute of Zhejiang University, China.
Obtaining 4000 well-growing human solid tumor cells and inoculating them into wells of a 96-well cell culture plate. The culture medium is DMEM High Glucose cell culture medium containing 10% fetal bovine serum. The plate is placed in a carbon dioxide cell incubator (5% CO2) at 37° C. and incubating for 24 hours. After adding the homoharringtonine derivatives of different concentration and mixing uniformly, the plate is placed in a carbon dioxide cell incubator (5% CO2) at 37° C. and incubating for 72 hours. Then the viable cell concentration is determined by the MTT method and the cell viability (%) after drug treatment is calculated. In this experiment, the cell viability of control group (not treated with any compound) is set as 100%.

`COC1=C[C@]23CCCN2CCc2cc4c(cc2[C@@H]3[C@@H]1OC(=O)[C@@](O)(CCCC(C)(C)O)CC(=O)NC1CCCCC1)OCO4` [BS-HH-042, O-3-[(2R)-2,6-dihydroxy-2-(2′-cyclohexaneamino-2′-oxoethyl)-6-methylheptanoyl]cephalotaxine] showed an IC50 ([1]; read-out: IC50) of 0.04 µg/mL (≈ 0.0653 µM), an IC90 ([1]; read-out: IC90) of 0.1 µg/mL (≈ 0.163 µM) and an IC50 ([2]; read-out: IC50) of 0.037 µg/mL (≈ 0.0604 µM). The IC90 ([2]; read-out: IC90) was 16 µg/mL (≈ 26.1 µM), the IC50 ([3]; read-out: IC50) was 3.2 µg/mL (≈ 5.22 µM) and the IC90 ([3]; read-out: IC90) was 16 µg/mL (≈ 26.1 µM). For the same compound, the IC50 ([4]; read-out: IC50) was 0.048 µg/mL (≈ 0.0783 µM), the IC90 ([4]; read-out: IC90) was 0.21 µg/mL (≈ 0.343 µM) and the IC50 ([5]; read-out: IC50) was 0.06 µg/mL (≈ 0.0979 µM). For the same compound, the IC90 ([5]; read-out: IC90) was 0.13 µg/mL (≈ 0.212 µM), the IC50 ([6]; Homo sapiens, RPMI-8226, RPMI8226, 72 h, read-out: IC50) was 0.042 µg/mL (≈ 0.0685 µM) and the IC90 ([6]; Homo sapiens, RPMI-8226, RPMI8226, 72 h, read-out: IC90) was 0.24 µg/mL (≈ 0.392 µM). For the same compound, the “anti-RPMI8226 (multiple myeloma) effect” value ([6]; result in words, summary of Table 2) was “strong”, the IC50 ([7]; read-out: IC50) was 0.45 µg/mL (≈ 0.734 µM) and the IC90 ([7]; read-out: IC90) was greater than 16 µg/mL. The IC50 ([8]; read-out: IC50) was 0.17 µg/mL (≈ 0.277 µM), the IC90 ([8]; read-out: IC90) was greater than 16 µg/mL and the IC50 ([9]; read-out: IC50) was 0.45 µg/mL (≈ 0.734 µM). For the same compound, the IC90 ([9]; read-out: IC90) was greater than 16 µg/mL, the IC50 ([10]; read-out: IC50) was 0.97 µg/mL (≈ 1.58 µM) and the IC90 ([10]; read-out: IC90) was greater than 16 µg/mL. For the same compound, the IC50 ([11]; read-out: IC50) was 0.044 µg/mL (≈ 0.0718 µM), the IC90 ([11]; read-out: IC90) was greater than 16 µg/mL and the IC50 ([12]; read-out: IC50) was 0.096 µg/mL (≈ 0.157 µM). For the same compound, the IC90 ([12]; read-out: IC90) was 0.25 µg/mL (≈ 0.408 µM), the IC50 ([13]; read-out: IC50) was 0.029 µg/mL (≈ 0.0473 µM) and the IC90 ([13]; read-out: IC90) was 0.23 µg/mL (≈ 0.375 µM). The IC50 ([14]; read-out: IC50) was 0.13 µg/mL (≈ 0.212 µM), the IC90 ([14]; read-out: IC90) was greater than 16 µg/mL and the IC50 ([15]; read-out: IC50) was 0.29 µg/mL (≈ 0.473 µM). It also gave an IC90 ([15]; read-out: IC90) of 16 µg/mL (≈ 26.1 µM), an IC50 ([16]; read-out: IC50) of 0.12 µg/mL (≈ 0.196 µM) and an IC90 ([16]; read-out: IC90) of 16 µg/mL (≈ 26.1 µM). For the same compound, the IC50 ([17]; read-out: IC50) was 0.13 µg/mL (≈ 0.212 µM), the IC90 ([17]; read-out: IC90) was greater than 16 µg/mL and the IC50 ([18]; read-out: IC50) was 0.31 µg/mL (≈ 0.506 µM). The IC90 ([18]; read-out: IC90) was greater than 16 µg/mL, the IC50 ([19]; read-out: IC50) was 0.21 µg/mL (≈ 0.343 µM) and the IC90 ([19]; read-out: IC90) was greater than 16 µg/mL. The IC50 ([20]; read-out: IC50) was 0.12 µg/mL (≈ 0.196 µM), the IC90 ([20]; read-out: IC90) was 13 µg/mL (≈ 21.3 µM) and the “anti-K562/adr, anti-NB4, anti-Kasumi-1 and anti-H9 activity” value [21] was “strong”. For the same compound, the “anti-A549, anti-PANC-1, anti-Becap37, anti-MG63, anti-Huh7, anti-RKO, anti-Hela, anti-CaES-17, anti-CNE, anti-Hep-2, anti-PC-3 and anti-SK-OV-3 effect” value [22] was “strong”.
